According to patent EP1205473A1, “VESAMICOL PIPERAZINE DERIVATIVES AND DRUGS CONTAINING THE SAME” (DAIICHI RADIOISOTOPE LABORATORIES, LTD., priority 1999, dated 2001):
Read-outs that look alike come from different tables or passages of the source.

Key:
[1] = molecular target: T1, sigma receptors (Cavia porcellus, UniProt Q60492); assay: Receptor binding test: inhibition of tritium-labeled (+) pentazocine binding to brain homogenate; parameters: species or system male guinea pig
T1 construct: The brain was immediately extracted; The cerebellum was removed from the brain; from tissue; host or cells: guinea pig brain without cerebellum, membrane pellet
T1 sequence (Q60492 whole entry): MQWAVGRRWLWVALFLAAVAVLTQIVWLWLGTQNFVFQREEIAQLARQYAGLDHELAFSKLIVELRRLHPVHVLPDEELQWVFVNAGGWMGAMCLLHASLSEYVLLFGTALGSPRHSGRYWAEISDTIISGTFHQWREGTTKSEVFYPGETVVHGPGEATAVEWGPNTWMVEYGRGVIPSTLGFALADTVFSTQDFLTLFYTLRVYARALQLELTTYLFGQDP
Protocol: (§1) Properties relating to binding of the vesamicol piperazine derivatives of the present invention to various receptors were examined as follows. Specifically, ligands which combine with each receptor were incubated together with homogenates prepared as follows.
To measure affinity to sigma receptors, tritium-labeled (+) pentazocine was added to a brain homogenate prepared as follows. The vesamicol piperazine derivatives synthesized in the Examples were added at various concentrations, and the mixture was incubated for two hours at room temperature.
(§2) B (%) =((1 0 0 × [U])^(∩))/([ I C50 (])^(∩) (+ [U])^(∩)) [formula] wherein B(%) is the proportion of specific binding in the total binding, n indicates a Hill coefficient, and U is the concentration of unbound ligand.
A male guinea pig was anesthetized with ether and was decapitated. The brain was immediately extracted. The cerebellum was removed from the brain. 10 mM Tris-sucrose buffer solution (0.32 M sucrose + 10 mM Tris-HCl (pH 7.4)) was added in the amount of 10 ml/g of the tissue. The mixture was homogenized by a potter-type homogenizer for 6-10 strokes. The homogenate was centrifuged at 1,000 x g for 10 minutes at 4°C and the supernatant liquid was collected. The resulting pellets were suspended in the Tris-sucrose buffer solution at the concentration of 2 ml/g, followed by centrifugation at 1,000 x g for 10 minutes at 4°C. The supernatant liquids obtained by the two centrifugation at 1,000 x g were combined and centrifuged at 31,000 x g for 15 minutes at 4°C. The resulting pellets were suspended in a 10 mM Tris-HCl buffer solution (pH 7.4) at a concentration of 3 ml/g of tissue and incubated for 30 minutes at 25°C. After incubation, the suspension was centrifuged at 31,000 x g for 15 minutes at 4°C. The pellets obtained were suspended in a 10 mM Tris-HCl buffer solution (pH 7.4) to make a final concentration of 1.53 ml/g of tissue. The suspension was homogenized by a potter-type homogenizer for 5 strokes. The homogenate was stored at -80°C until the start of the experiment.

[2] = molecular target: T2, serotonin 5-HT1A receptors (Rattus norvegicus, UniProt P19327); assay: Receptor binding test: inhibition of tritium-labeled 8-hydroxy-DPAT binding to brain (hippocampus) homogenate; parameters: species or system Male Wistar rats
T2 construct: The hippocampi were immediately collected from the brains; from tissue; host or cells: rat hippocampus membranes
T2 sequence (P19327 1-422): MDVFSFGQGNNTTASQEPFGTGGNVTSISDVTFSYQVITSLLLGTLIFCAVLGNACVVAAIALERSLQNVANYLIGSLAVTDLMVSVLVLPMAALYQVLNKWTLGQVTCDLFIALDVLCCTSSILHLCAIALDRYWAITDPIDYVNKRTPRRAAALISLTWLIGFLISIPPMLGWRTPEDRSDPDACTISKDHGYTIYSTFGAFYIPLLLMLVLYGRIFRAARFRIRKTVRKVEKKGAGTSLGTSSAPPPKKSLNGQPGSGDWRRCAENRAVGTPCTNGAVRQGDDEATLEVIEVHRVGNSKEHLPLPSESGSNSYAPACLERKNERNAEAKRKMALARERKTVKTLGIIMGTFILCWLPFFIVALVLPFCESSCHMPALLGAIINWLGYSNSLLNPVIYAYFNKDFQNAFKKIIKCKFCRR
Protocol: as §1
To measure affinity to serotonin 5-HT1A receptors, tritium-labeled 8-hydroxy-DPAT was added to a brain homogenate prepared as follows. The vesamicol piperazine derivatives synthesized in the Examples were added at various concentrations, and the mixture was incubated for 30 minutes at 37°C. To measure affinity to serotonin 5-HT2A receptors, tritium-labeled ketanserin was added to a brain homogenate prepared as follows. The vesamicol piperazine derivatives synthesized in the Examples were added at various concentrations, and the mixture was incubated for 15 minutes at 37°C.
as §2
Male Wistar rats were anesthetized with ether and were decapitated and the brains quickly extracted. The hippocampi were immediately collected from the brains. A 40-fold (vol/wt) amount of ice cooled 50 mM Tris-HCl buffer (pH 7.4) was added to the hippocampi. The mixture was homogenized using a potter-type homogenizer. The homogenate was centrifuged at 40,000 x g for 20 minutes. The supernatant liquid was removed and the resulting pellets were suspended in a 40-fold amount of Tris-HCl buffer solution. The suspension was centrifuged and the Tris buffer solution was again added to the pellets. This procedure was repeated twice. The product thus obtained was homogenized using a 40-fold amount of Tris-HCl buffer solution and incubated for 10 minutes at 37°C to remove endogenic 5-HT. The cell membrane was collected by centrifugation, washed twice, and suspended in a 10-fold amount of 50 mM Tris-HCl buffer solution (pH 7.4). The suspension thus obtained was stored at -80°C until the start of the binding experiment.

[3] = molecular target: serotonin 5-HT2A receptors (Rattus norvegicus, UniProt P14842); assay: Receptor binding test: inhibition of tritium-labeled ketanserin binding to brain homogenate; parameters: species or system Male Wistar rats
Sequence of serotonin 5-HT2A receptors (P14842 whole entry): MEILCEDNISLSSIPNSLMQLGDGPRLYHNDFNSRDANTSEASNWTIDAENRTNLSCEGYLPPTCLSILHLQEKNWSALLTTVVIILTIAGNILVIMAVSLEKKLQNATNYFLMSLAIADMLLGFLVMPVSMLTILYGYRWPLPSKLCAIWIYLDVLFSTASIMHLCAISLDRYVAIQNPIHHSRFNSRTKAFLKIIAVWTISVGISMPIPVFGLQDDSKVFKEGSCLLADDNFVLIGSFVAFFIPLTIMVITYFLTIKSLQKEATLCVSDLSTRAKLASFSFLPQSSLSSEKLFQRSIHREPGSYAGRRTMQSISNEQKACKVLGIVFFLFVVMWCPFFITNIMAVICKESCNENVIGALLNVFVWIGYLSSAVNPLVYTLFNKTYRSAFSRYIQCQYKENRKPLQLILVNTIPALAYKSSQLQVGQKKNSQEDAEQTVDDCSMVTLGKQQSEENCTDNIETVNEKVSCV

[4] = molecular target: T3, vesamicol receptors (Rattus norvegicus, UniProt Q62666); assay: Inhibition experiment: inhibition of binding of radioactive-iodine-labeled DRC140 to P2 fractions; parameters: Synaptic vesicles were extracted and separated from the brain of a rat; from tissue; host or cells: rat brain without cerebellum: P2, crude synaptic vesicles, purified synaptic vesicles
T3 sequence (Q62666 1-530): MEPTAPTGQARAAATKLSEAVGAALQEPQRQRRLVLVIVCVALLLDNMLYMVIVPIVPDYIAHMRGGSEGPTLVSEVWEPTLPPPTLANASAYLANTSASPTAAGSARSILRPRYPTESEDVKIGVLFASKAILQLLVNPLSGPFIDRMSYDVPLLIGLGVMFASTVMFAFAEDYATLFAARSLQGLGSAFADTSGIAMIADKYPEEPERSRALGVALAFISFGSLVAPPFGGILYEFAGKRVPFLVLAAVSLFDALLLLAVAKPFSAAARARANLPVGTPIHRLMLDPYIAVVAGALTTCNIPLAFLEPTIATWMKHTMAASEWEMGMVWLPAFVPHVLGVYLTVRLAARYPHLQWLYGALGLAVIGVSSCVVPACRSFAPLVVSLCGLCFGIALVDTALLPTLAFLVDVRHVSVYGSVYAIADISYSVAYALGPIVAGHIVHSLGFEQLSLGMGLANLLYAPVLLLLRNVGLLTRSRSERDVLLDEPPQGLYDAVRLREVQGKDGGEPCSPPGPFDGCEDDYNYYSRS

[5] = molecular target: T3, vesamicol receptors; assay: Inhibition experiment: inhibition of binding of radioactive-iodine-labeled DRC140 to purified synaptic vesicle fractions; parameters: Synaptic vesicles were extracted and separated from the brain of a rat; from tissue; host or cells: rat brain without cerebellum: P2, crude synaptic vesicles, purified synaptic vesicles
[6] = molecular target: T3, vesamicol receptors; assay: Receptor binding test: inhibition of I-125 labeled 5-iodobenzo vesamicol binding to brain homogenate; parameters: from tissue; host or cells: rat brain without cerebellum, P2 fraction; species or system Male Wistar rats; details: Inhibitive concentration at 50% (IC50), Vesamicol receptor, Table 5; incubated three hours at 37°C; no unit printed in table (b19 gives nM for DRC140)
Protocol: as §1
To measure affinity of vesamicol receptors, I-125 labeled 5-iodobenzo vesamicol (synthesized and labeled according to Jung et al., J. Med. Chem. 33, 2065-2068, 1990) was added to a brain homogenate prepared as follows. The vesamicol piperazine derivatives synthesized in the Examples were added at various concentrations. The mixture was then incubated for three hours at 37°C.
as §2
Male Wistar rats were anesthetized with ether and were decapitated. The brains were immediately extracted. The cerebella were removed from the brains. 0.32 M sucrose (containing 4 mM HEPES (pH 7.4)) in an amount of five times the wet amount (weight) of this sample was added. The sample was homogenized by a potter-type homogenizer for 12 strokes while cooling with ice. 0.32 M sucrose in the same amount as the homogenate (total: 10 times the wet amount of the original sample) was added. The suspension thus obtained was centrifuged for 5 minutes at 1,000 x g. The precipitate was removed. The supernatant liquid was centrifuged at 9,200 x g for 15 minutes to separate the precipitate from the supernatant liquid. P2 fractions were suspended in a Tris-HCl buffer (pH 7.4) for binding experiments and stored at -80°C until the start of the binding experiment.

[7] = molecular target: adrenaline α1 receptors; assay: Receptor binding test: inhibition of tritium-labeled prazosin binding to brain homogenate; parameters: species or system Male Wistar rats; details: read-out: inhibitive concentration at 50% (IC50), Receptor Alpha-1; Table 9; high purity derivatives; unit inferred
[8] = inhibitive concentration at 50% (IC50), Receptor Vesamicol
[9] = read-out: inhibitive concentration at 50% (IC50), Receptor Sigma-1

OC1CCCCC1N1CCC(c2ccccc2)CC1 (single isomer, unassigned; (-)) [(-)-Vesamicol, 2-(4-phenyl-piperidino)cyclohexanol, reference compound]
IC50 [1]: 66.5 nM | IC50 [2]: > 5000 nM | IC50 [3]: > 5000 nM | IC50 ([4]; IC50 (nM) Average ± S.D): 58.2 ± 17.3 nM | IC50 [4, 8]: 45.4 nM | IC50 [5]: 45.4 ± 3.59 nM

Cc1ccc(C)c(N2CCN([C@@H]3Cc4c(I)cccc4C[C@H]3O)CC2)c1 (single isomer, unassigned) [DRE350, (-)-trans-5-iodo-2-hydroxy-3-[4-[2,5-dimethylphenyl]piperazinyl]tetralin]
IC50 ([1]; read-out: Inhibitive concentration at 50% (IC50), Sigma α-1 receptor): 1500 nM | IC50 [1, 9]: 5550 nM | IC50 ([2]; read-out: Inhibitive concentration at 50% (IC50), Serotonin receptor 5-HT1A): 240 nM | IC50 ([3]; read-out: Inhibitive concentration at 50% (IC50), Serotonin receptor 5-HT2A): > 20000 nM | IC50 [6]: 0.58 nM | IC50 [4, 8]: 0.83 nM

Cc1ccccc1NC(=N)Nc1ccccc1C [DTG, reference compound]
inhibitive action on P2 fractions [4]: weak inhibitive action | IC50 ([4]; IC50 (nM) Average ± S.D): 3820 ± 930 nM | IC50 [5]: 4160 ± 251 nM | inhibitive action on purified synaptic vesicles ([5]; result in words): almost the same degree of weak inhibitive action

O[C@@H]1Cc2cccc(I)c2C[C@H]1N1CCC(c2ccccc2)CC1 [(-)-IBVM, 5-iodobenzovesamicol, reference compound]
IC50 [7]: 2.61 nM | IC50 [1, 9]: 174 nM | IC50 ([2]; read-out: inhibitive concentration at 50% (IC50), Receptor 5-HT1A): 119 nM | IC50 ([3]; read-out: inhibitive concentration at 50% (IC50), Receptor 5-HT2A): > 5000 nM | IC50 ([4]; read-out: inhibitive concentration at 50% (IC50), Receptor Vesamicol): 0.32 nM
